Measurements taken from patent US9499519B2, “Fused pyrimidine compounds and use thereof” (Medivation Technologies, Inc., priority 2012, dated 2016).
Like-named read-outs stand apart in the source and are kept apart here.

Experiments:
[1] = system: Akt phosphorylation induced by IGF-1R; test: Western blot analysis of Akt phosphorylation induced by IGF-1 in HT-29 cells; type: cell-based, Human; conditions: for pAKT relative to 0.1 nM compound: derivatives of Cpd. No. 8b; for Levels of phosphorylated AKT in treated cells (pAKT/actin): HT-29 cells, IGF-1; for p-AKT relative to levels with 0.1 nM compound: Table B2 lower part; for Normalized phosphorylated AKT (relative to actin) levels relative to 0.1 nM compound treatment: Table B2 upper part
Outline: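 Phospho-Akt assessed by western blot in serum-depleted (24 h) human colon carcinoma HT-29 cells. Compounds applied for 2 h at 0.1–100 (0.1, 1, 10, 100); vehicle DMSO and 10 ng/mL IGF-1 served as controls. Protein in cleared lysates measured by BCA assay.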

AXL = biological target: T1, AXL (Homo sapiens, UniProt P30530); test: Caliper kinase assay: AXL; conditions: 0.01 μM
T1 sequence (P30530 26-894): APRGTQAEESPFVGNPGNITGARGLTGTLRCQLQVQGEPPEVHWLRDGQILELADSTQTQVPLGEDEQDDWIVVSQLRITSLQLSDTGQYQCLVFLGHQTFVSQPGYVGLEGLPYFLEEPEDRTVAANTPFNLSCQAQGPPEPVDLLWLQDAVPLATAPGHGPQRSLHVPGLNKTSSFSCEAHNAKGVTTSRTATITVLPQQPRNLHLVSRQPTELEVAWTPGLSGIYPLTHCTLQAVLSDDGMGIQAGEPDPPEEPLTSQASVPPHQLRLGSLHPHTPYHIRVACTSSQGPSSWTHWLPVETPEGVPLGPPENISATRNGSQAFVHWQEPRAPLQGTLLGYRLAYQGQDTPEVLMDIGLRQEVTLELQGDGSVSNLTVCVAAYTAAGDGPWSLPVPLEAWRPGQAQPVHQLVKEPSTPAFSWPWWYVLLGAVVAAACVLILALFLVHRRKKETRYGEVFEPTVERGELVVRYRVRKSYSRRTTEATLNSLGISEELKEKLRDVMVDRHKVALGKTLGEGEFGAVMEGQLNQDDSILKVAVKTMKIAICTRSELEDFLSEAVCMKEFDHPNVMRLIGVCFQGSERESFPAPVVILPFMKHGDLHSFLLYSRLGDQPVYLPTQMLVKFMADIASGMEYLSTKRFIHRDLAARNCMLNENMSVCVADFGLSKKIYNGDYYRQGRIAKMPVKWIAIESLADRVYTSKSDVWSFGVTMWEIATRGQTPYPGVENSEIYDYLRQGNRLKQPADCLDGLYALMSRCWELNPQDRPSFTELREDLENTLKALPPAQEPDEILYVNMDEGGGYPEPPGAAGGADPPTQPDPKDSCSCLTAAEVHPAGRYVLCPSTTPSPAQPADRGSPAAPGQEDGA
Experimental: (§6) The compound was tested at concentrations of 1.0×10^−8 and 1.0×10^−9 M in the RapidKinase192™ panel in duplicate. […] The screening was performed using the Caliper EZReader2, a 4-sipper LabChip, and ProfilerPro Kinase Selectivity Assay Kits 1 and 2. The assay measures the conversion of a fluorescent peptide substrate to a phosphorylated product. Briefly, the reaction mixture was introduced through a capillary sipper onto the microfluidic chip, where the substrate and product were electrophoretically separated and detected by laser-induced fluorescence. The time-dependent fluorescence signal indicates the extent of the reaction.
(§7) The kinases tested were AurA, AurB, AurC, AXL, FAK2, IGF1R, InsR, Mer, MET, Trk B and Trk C.
(§8) The assays were conducted using the Caliper LabChip 3000 and a 12-sipper LabChip as described above.

NTRK2(TRKB) = NTRK2(TRKB) (Homo sapiens, UniProt Q16620); test: Caliper kinase assay: NTRK2 (TRKB); conditions: Trk B, 0.01 μM
Experimental: as §6, §7, §8

TRKC(NTRK3) = TRKC(NTRK3) (Homo sapiens, UniProt Q16288); test: Caliper kinase assay: TRKC (NTRK3); conditions: Trk C, 0.01 μM
Sequence of TRKC(NTRK3) (Q16288 32-839): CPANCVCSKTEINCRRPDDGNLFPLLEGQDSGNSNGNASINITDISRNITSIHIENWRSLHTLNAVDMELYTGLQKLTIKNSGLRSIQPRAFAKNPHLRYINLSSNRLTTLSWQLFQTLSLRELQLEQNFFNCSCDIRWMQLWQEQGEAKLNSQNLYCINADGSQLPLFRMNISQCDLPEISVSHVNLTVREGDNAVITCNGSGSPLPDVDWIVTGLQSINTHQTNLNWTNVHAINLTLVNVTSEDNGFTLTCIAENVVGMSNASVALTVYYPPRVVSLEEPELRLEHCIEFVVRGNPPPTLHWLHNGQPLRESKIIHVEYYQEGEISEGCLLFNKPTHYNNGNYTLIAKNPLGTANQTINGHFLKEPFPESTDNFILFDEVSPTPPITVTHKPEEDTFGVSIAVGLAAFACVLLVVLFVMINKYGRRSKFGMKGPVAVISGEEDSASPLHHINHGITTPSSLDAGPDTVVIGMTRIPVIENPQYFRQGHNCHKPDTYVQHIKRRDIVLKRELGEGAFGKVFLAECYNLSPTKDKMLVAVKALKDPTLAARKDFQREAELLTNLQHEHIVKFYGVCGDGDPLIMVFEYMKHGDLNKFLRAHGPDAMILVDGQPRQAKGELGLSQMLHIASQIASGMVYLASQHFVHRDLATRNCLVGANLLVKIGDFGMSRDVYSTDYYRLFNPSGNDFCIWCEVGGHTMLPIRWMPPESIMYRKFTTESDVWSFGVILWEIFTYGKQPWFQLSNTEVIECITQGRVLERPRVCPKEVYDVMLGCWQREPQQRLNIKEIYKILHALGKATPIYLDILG
Experimental: as §6, §7, §8

PYK2 = PYK2 (Homo sapiens, UniProt Q14289); test: Caliper kinase assay: PYK2 (called FAK2); conditions: FAK2, 0.01 μM
Sequence of PYK2 (Q14289 whole entry): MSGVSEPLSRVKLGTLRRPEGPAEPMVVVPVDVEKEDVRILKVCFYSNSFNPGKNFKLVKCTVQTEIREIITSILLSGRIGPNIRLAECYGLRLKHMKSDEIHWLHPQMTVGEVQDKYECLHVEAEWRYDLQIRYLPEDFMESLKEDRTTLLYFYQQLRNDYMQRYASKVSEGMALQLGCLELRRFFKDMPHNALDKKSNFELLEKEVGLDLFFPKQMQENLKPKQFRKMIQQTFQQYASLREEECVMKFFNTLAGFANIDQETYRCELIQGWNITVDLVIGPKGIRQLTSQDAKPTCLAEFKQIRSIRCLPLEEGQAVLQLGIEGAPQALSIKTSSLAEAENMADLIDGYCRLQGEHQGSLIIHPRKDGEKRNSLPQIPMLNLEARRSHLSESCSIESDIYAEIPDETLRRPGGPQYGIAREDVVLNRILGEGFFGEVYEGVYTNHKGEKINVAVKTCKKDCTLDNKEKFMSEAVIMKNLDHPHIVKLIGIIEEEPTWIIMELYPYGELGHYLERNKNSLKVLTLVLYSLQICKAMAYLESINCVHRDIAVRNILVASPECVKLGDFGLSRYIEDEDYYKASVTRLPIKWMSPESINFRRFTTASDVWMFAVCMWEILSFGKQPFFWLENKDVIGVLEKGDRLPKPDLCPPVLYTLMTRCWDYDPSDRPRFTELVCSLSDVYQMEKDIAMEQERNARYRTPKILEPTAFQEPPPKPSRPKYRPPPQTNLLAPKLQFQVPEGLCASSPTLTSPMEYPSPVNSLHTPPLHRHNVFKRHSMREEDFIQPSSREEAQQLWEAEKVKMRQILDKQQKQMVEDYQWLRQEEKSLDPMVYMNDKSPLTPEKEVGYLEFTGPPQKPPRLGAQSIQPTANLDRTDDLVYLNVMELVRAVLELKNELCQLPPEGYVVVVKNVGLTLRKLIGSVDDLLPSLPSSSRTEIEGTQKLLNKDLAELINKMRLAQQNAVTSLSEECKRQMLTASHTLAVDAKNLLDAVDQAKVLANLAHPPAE
Experimental: as §6, §7, §8

IGF-1R = biological target: T2, IGF-1R (Homo sapiens, UniProt P08069); test: In vitro IGF-1R enzymatic assay (ADP-Glo kinase assay); type: biochemical; conditions: activated IGF-1R
T2 construct: purchased Millipore 14-802
T2 sequence (P08069 31-1367): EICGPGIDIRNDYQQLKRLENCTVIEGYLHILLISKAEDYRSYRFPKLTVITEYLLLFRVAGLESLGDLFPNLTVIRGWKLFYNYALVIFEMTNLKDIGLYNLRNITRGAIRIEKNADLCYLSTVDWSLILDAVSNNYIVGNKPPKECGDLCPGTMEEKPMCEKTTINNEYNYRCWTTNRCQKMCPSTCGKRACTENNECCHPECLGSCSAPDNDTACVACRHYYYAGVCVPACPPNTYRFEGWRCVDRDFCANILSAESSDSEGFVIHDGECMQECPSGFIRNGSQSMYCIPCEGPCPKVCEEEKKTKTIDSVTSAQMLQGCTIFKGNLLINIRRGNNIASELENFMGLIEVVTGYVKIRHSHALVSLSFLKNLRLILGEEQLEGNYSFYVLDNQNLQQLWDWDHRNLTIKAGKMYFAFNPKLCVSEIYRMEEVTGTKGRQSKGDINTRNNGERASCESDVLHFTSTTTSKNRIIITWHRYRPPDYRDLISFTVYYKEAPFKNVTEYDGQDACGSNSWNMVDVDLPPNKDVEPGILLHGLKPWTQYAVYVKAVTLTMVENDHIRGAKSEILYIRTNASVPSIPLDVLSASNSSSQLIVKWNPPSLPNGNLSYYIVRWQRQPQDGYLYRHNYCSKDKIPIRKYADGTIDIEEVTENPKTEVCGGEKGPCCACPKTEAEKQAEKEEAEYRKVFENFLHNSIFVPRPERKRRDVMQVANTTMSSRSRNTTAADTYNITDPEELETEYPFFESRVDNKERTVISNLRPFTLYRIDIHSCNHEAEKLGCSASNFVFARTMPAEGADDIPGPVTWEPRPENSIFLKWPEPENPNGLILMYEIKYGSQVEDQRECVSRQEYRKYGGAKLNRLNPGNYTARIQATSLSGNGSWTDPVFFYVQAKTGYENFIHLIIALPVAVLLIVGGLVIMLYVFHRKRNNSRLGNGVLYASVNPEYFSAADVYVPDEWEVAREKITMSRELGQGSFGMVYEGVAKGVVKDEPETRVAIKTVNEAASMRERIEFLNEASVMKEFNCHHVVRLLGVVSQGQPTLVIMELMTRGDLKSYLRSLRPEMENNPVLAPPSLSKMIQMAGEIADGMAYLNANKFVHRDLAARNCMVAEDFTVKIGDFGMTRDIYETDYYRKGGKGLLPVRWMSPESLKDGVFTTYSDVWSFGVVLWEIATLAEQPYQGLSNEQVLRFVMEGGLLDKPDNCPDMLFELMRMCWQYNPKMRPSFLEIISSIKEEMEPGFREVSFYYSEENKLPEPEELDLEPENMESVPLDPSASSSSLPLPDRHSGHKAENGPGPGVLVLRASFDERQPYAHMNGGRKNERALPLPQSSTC
Experimental: (§1) IC50 values of the compounds of the invention against IGF-1R and IR were measured in vitro using an ADP-Glo kinase assay Kit (Promega). […] Kinase reactions in both assays were conducted at 30° C. for 20 min with increasing concentrations of compounds of the invention.
Additional compounds of the invention were screened against activated IGF-1R.

IR = biological target: T3, IR (Homo sapiens, UniProt P06213); test: In vitro IR enzymatic assay (ADP-Glo kinase assay); type: biochemical; conditions: activated IR; for inhibition at 0.03 µM: 30 nM
T3 construct: purchased Millipore 14-803
T3 sequence (P06213 28-1382): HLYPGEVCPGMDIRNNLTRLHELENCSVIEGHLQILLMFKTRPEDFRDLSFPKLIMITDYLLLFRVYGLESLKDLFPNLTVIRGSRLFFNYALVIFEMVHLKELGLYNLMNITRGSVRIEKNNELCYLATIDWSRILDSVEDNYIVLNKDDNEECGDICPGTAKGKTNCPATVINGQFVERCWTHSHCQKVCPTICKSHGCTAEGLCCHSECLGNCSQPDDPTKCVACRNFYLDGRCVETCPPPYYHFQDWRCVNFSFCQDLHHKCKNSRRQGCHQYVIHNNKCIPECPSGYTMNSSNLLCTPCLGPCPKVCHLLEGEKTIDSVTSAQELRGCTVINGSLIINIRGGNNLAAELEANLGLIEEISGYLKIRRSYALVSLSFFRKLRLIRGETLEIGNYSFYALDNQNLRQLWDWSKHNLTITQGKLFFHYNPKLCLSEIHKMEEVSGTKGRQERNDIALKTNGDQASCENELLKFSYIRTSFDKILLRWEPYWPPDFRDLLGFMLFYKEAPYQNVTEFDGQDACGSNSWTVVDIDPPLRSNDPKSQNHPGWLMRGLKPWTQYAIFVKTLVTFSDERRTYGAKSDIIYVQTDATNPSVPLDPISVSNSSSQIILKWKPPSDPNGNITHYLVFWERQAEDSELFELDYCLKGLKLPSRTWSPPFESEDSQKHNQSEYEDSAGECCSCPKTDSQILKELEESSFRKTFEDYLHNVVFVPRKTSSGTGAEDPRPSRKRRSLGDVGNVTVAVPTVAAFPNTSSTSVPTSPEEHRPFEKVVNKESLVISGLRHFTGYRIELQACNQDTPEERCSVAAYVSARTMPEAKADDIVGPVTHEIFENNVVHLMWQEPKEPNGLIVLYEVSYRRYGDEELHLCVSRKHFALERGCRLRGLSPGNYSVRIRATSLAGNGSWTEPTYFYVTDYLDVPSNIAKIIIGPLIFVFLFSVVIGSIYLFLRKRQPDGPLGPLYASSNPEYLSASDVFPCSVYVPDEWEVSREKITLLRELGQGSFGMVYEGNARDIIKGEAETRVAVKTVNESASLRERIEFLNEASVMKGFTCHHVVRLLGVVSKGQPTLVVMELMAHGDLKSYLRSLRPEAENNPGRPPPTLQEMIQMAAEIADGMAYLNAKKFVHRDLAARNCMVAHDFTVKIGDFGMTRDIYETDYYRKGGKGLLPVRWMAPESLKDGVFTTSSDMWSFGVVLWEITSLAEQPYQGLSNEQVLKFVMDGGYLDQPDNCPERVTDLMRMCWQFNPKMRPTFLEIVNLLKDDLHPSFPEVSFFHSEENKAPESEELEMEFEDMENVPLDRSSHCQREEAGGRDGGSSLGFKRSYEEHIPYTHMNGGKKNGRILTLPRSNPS
Experimental: as §1
Additional compounds of the invention were screened against activated IR.

MDA MB175 = test: Cell Titer-Glo cell viability: MDA MB175; type: cell-based; conditions: MDA-MB-175, any concentration tested, 3 μM maximum
Experimental: (§2) Compound nos. […] This panel of cell lines includes an ER− breast carcinoma, primary breast ductal carcinoma, prostate adenocarcinoma, mammary adenocarcinoma, mammary ductal carcinoma, mammary ductal carcinoma, ovary adenocarcinoma, ER+ breast carcinoma, ER− HER2+ mammary ductal carcinoma and an ER+ mammary ductal carcinoma, respectively.
(§3) This assay quantitates the ATP present in order to determine the number of viable cells in culture. Briefly, the compounds were incubated with the cells for 72 h, followed by cell lysis. The resulting luminescent signal is proportional to the amount of ATP present and, therefore, directly proportional to the number of cells present in culture.
(§4) Compounds 2b, 5, 6b and 10a were tested along with derivatives in viability assays as described above by Caliper LifeSciences Systems (Hanover, Md.), in A549, HCT-15, HCT-116, MCF-7, MDA-MB-231, OVCAR3, T47D, COLO205, HT-29, BT-20, HCC1187, HL-60, MDA-MB-175, SW-620, and UACC812 cells.
(§5) The inhibitory effects of Compound 8a were tested in two cell lines.

UACC 812 = test: Cell Titer-Glo cell viability: UACC 812; type: cell-based; conditions: UACC812, any concentration tested, 3 μM maximum
Experimental: as §2, §3, §4, §5

[2] = average, read-out: % Inh @ 30 nM Avg
[3] = 30 nM, average, read-out: % Inh @ 30 nM Avg

O=C(Nc1ccc(F)nc1)C1CC(O)CN1c1nc2c(c(Nc3cc(C4CC4)[nH]n3)n1)CCC2 (racemic) [Compound 10d, 1-(4-(5-cyclopropyl-1H-pyrazol-3-ylamino)-6,7-dihydro-5H-cyclopenta[d]pyrimidin-2-yl)-N-(6-fluoropyridin-3-yl)-4-hydroxypyrrolidine-2-carboxamide]
pAKT relative to 0.1 nM compound ([1]; 1 nM): 0.84
pAKT relative to 0.1 nM compound ([1]; 10 nM): 0.23
pAKT relative to 0.1 nM compound ([1]; 100 nM): 0.01
inhibition of kinase (AXL): strongly inhibited
inhibition of kinase (NTRK2(TRKB)): strongly inhibited
inhibition of kinase (TRKC(NTRK3)): strongly inhibited
inhibition of kinase (PYK2): strongly inhibited

O=C(Nc1ccc(F)nc1)C1CC(O)CN1c1nc2c(c(Nc3cc(C4CC4)[nH]n3)n1)CCC2 (racemic) [Compound 10a, (2S,4R)-1-(4-(5-cyclopropyl-1H-pyrazol-3-ylamino)-6,7-dihydro-5H-cyclopenta[d]pyrimidin-2-yl)-N-(6-fluoropyridin-3-yl)-4-hydroxypyrrolidine-2-carboxamide]
Levels of phosphorylated AKT in treated cells (pAKT/actin) ([1]; 0.1 nM compound): 2.28
p-AKT relative to levels with 0.1 nM compound ([1]; 0.1 nM): 1.0
Normalized phosphorylated AKT (relative to actin) levels relative to 0.1 nM compound treatment ([1]; 0.1 nM): 1.0
pAKT relative to 0.1 nM compound ([1]; 0.1 nM): 1.00
Levels of phosphorylated AKT in treated cells (pAKT/actin) ([1]; 1 nM compound): 0.54
p-AKT relative to levels with 0.1 nM compound ([1]; 1 nM): 0.2
Normalized phosphorylated AKT (relative to actin) levels relative to 0.1 nM compound treatment ([1]; 1 nM): 0.2
pAKT relative to 0.1 nM compound ([1]; 1 nM): 0.69
Levels of phosphorylated AKT in treated cells (pAKT/actin) ([1]; 10 nM compound): 0.00
p-AKT relative to levels with 0.1 nM compound ([1]; 10 nM): 0.0
Normalized phosphorylated AKT (relative to actin) levels relative to 0.1 nM compound treatment ([1]; 10 nM): 0.0
pAKT relative to 0.1 nM compound ([1]; 10 nM): 0.16
Levels of phosphorylated AKT in treated cells (pAKT/actin) ([1]; 100 nM compound): 0.01
p-AKT relative to levels with 0.1 nM compound ([1]; 100 nM): 0.0
Normalized phosphorylated AKT (relative to actin) levels relative to 0.1 nM compound treatment ([1]; 100 nM): 0.0
pAKT relative to 0.1 nM compound ([1]; 100 nM): 0.01
IC50 (IGF-1R): 33 nM
% Inh @ 30 nM Avg (IGF-1R; 30 nM, average): 32%
IC50 (IR): 33 nM
inhibition at 0.03 µM (IR; [2]): 54%
inhibition of kinase (AXL): strongly inhibited
inhibition of kinase (NTRK2(TRKB)): strongly inhibited
inhibition of kinase (TRKC(NTRK3)): strongly inhibited
inhibition of kinase (PYK2): strongly inhibited

CC(C)c1cc(Nc2nc(N3CCC[C@H]3C(=O)Nc3ccc(F)nc3)nc3c2CCC3)n[nH]1 (single isomer, unassigned) [Compound 8a]
Levels of phosphorylated AKT in treated cells (pAKT/actin) ([1]; 0.1 nM compound): 1.93
p-AKT relative to levels with 0.1 nM compound ([1]; 0.1 nM): 1.0
Normalized phosphorylated AKT (relative to actin) levels relative to 0.1 nM compound treatment ([1]; 0.1 nM): 1.0
Levels of phosphorylated AKT in treated cells (pAKT/actin) ([1]; 1 nM compound): 2.27
p-AKT relative to levels with 0.1 nM compound ([1]; 1 nM): 1.2
Normalized phosphorylated AKT (relative to actin) levels relative to 0.1 nM compound treatment ([1]; 1 nM): 1.2
Levels of phosphorylated AKT in treated cells (pAKT/actin) ([1]; 10 nM compound): 1.17
p-AKT relative to levels with 0.1 nM compound ([1]; 10 nM): 0.6
Normalized phosphorylated AKT (relative to actin) levels relative to 0.1 nM compound treatment ([1]; 10 nM): 0.6
Levels of phosphorylated AKT in treated cells (pAKT/actin) ([1]; 100 nM compound): 1.78
p-AKT relative to levels with 0.1 nM compound ([1]; 100 nM): 0.9
Normalized phosphorylated AKT (relative to actin) levels relative to 0.1 nM compound treatment ([1]; 100 nM): 0.9
inhibition at 0.03 µM (IGF-1R; [3]): 0%
proliferation as compared to the untreated control (MDA MB175): ≥ 68%
proliferation as compared to the untreated control (UACC 812): ≥ 68%

O=C(Nc1cnccn1)C1CCCN1c1nc2c(c(Nc3cc(C4CC4)[nH]n3)n1)CCC2 (single isomer, unassigned) [Compound 6b, 1-(4-(3-cyclopropyl-1H-pyrazol-5-ylamino)-6,7-dihydro-5H-cyclopenta[d]pyrimidin-2-yl)-N-(pyrazin-2-yl)pyrrolidine-2-carboxamide]
Levels of phosphorylated AKT in treated cells (pAKT/actin) ([1]; 0.1 nM compound): 0.87
p-AKT relative to levels with 0.1 nM compound ([1]; 0.1 nM): 1.0
Normalized phosphorylated AKT (relative to actin) levels relative to 0.1 nM compound treatment ([1]; 0.1 nM): 1.0
pAKT relative to 0.1 nM compound ([1]; 0.1 nM): 1.00
Levels of phosphorylated AKT in treated cells (pAKT/actin) ([1]; 1 nM compound): 0.18
p-AKT relative to levels with 0.1 nM compound ([1]; 1 nM): 0.2
Normalized phosphorylated AKT (relative to actin) levels relative to 0.1 nM compound treatment ([1]; 1 nM): 0.2
pAKT relative to 0.1 nM compound ([1]; 1 nM): 0.39
Levels of phosphorylated AKT in treated cells (pAKT/actin) ([1]; 10 nM compound): 0.00
p-AKT relative to levels with 0.1 nM compound ([1]; 10 nM): 0.0
pAKT relative to 0.1 nM compound ([1]; 10 nM): 0.02
Levels of phosphorylated AKT in treated cells (pAKT/actin) ([1]; 100 nM compound): 0.00
p-AKT relative to levels with 0.1 nM compound ([1]; 100 nM): 0.0
Normalized phosphorylated AKT (relative to actin) levels relative to 0.1 nM compound treatment ([1]; 100 nM): 0.0
pAKT relative to 0.1 nM compound ([1]; 100 nM): 0.01
inhibition at 0.03 µM (IGF-1R; 30 nM, N1, read-out: % Inh @ 30 nM (N1)): 93%
inhibition at 0.03 µM (IGF-1R; 30 nM, N2, read-out: % Inh @ 30 nM (N2)): 95%
inhibition at 0.03 µM (IGF-1R; [3]): 94%
inhibition at 0.03 µM (IR; N1, read-out: % Inh @ 30 nM (N1)): 92%
inhibition at 0.03 µM (IR; N2, read-out: % Inh @ 30 nM (N2)): 91%
inhibition at 0.03 µM (IR; [2]): 92%
inhibition of kinase (AXL): strongly inhibited
inhibition of kinase (NTRK2(TRKB)): strongly inhibited
inhibition of kinase (TRKC(NTRK3)): strongly inhibited
inhibition of kinase (PYK2): strongly inhibited
